Reference: ChEMBL document CHEMBL4421720, “Tetrahydropyridopyrazines modulators of gpr6” (2016)

Target: G-protein coupled receptor 6 (Homo sapiens, UniProt P46095)
Assay: Modulation activity at GPR6 receptor (unknown origin) expressed in CHO-K1 cells assessed as inhibition of constitutive cAMP activity incubated for 45 mins by Perkin Elmer Lance HTRF Ultrac-AMP assay
Type: functional, cell-based

Sequence of G-protein coupled receptor 6 (P46095 whole entry): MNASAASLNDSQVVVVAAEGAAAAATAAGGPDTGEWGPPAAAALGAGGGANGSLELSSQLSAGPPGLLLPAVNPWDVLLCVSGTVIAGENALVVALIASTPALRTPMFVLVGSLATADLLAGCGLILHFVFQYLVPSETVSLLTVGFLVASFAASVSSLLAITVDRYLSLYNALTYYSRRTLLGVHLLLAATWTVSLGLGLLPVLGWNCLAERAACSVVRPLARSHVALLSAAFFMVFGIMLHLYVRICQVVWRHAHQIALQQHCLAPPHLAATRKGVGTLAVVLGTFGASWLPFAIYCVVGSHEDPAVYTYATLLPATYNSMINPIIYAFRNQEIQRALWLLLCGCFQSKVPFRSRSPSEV

`CC(C)Nc1nc2c(nc1N1CCC(C(=O)c3cc(Cl)ccc3F)CC1)CCN(C)C2` showed an IC50 (cho-k1) of 13.7 µM.

`CC(=O)N1CCc2nc(N3CCC(C(=O)c4cc(Cl)ccc4F)CC3)c(NC(C)C)nc2C1` gave an IC50 of 13.8 µM.
